Assay results reported in US20110158969A1, “COMPOSITIONS AND METHODS FOR USING STROMAL CELLS TO ENHANCE TREATMENT OF CENTRAL NERVOUS SYSTEM INJURIES” (HENRY FORD HEALTH SYSTEM, priority 2008, published 2011).

Tests used:
[1] = system: Rat Intracerebral Hemorrhage (ICH) Model; test: Neurological severity score (NSS) test in rat ICH model; assay type: in vivo; conditions: end of second week (day 14) after ICH; vs human fibroblast control group; P<0.05 significant
Description: (§1) Functional neurological tests. Functional neurological outcomes were measured by the neurological severity score test (NSS) (Chen et al., 2001) and the corner turn test (Zhang et al., 2002), as previously described in Seyfried et al., 2006. Statistical analysis. Statistical analysis of functional scores was performed using the Student's two-tailed t-test for independent samples.

[2] = system: Rat Intracerebral Hemorrhage (ICH) Model; test: Corner turn test in rat ICH model; assay type: in vivo; conditions: end of second week (day 14) after ICH; vs human fibroblast control group; P<0.05 significant
Description: as §1

Rat ICH Model = test: Striatal tissue loss (H & E staining, image analysis) in rat ICH model; assay type: in vivo; conditions: 14 days after ICH; relative to contralateral striatum; mean±standard error; mannitol 1.5 g/kg iv, 1 million cells intraarterial
Description: Thirty-six male Wistar rats weighing from 270 to 320 grams were used for intracerebral hemorrhage studies. Stereotactic stabilization and localization were used in the rats under general anesthesia as previously described (Seyfried et al., 2006). ICH was induced by injecting 100 μl of autologous blood, obtained from the femoral vein, into the right striatum at a steady infusion rate of 10 μl per minute (Seyfried et al., 2004). Twenty four hours after ICH, the animals were divided into four experimental groups. Group 1 received only intraarterial (via internal carotid artery) injection of 1 million human primary fibroblasts in phosphate-buffered saline (PBS) as a control. Group 2 received intravenous injection of mannitol at a dose of 1.5 g/kg in PBS via the tail vein. Group 3 received intraarterial (internal carotid artery) injection of 1 million hBMSCs in PBS. Group 4 received intravenous injection of mannitol at a dose of 1.5 g/kg followed 10 minutes later by intraarterial injection of 1 million hBMSCs in PBS. All treatments were administered 24 hours after induction of ICH. All rats also received a daily intraperitoneal injection of 100 mg/kg BrdU starting at day 1 after ICH for 14 days.
Histology and immunohistochemistry. […] Percentage of the striatal tissue loss compared to the contralateral striatum was calculated using an image analysis system (Data Translation, Marlboro, Mass.). […]

[3] = system: BrdU-positive cells in the boundary around the lesion; test: BrdU immunostaining, proliferating cells around the lesion; assay type: in vivo, rat; conditions: 14 days after ICH; vs control group; P<0.05

## OC[C@@H](O)[C@@H](O)[C@H](O)[C@H](O)CO [mannitol]
[1]
  functional neurological outcome assessed by NSS: failed to show any statistically significant neurological improvement
[2]
  functional neurological outcome assessed by corner turn test: failed to show any statistically significant neurological improvement
Rat ICH Model
  percentage loss of striatal tissues on the side of hemorrhage: 25.9±1.75%
[3]
  BrdU positive staining cells around the injured site: significantly increased the BrdU labeling
